Measured values from patent US20240251792A1, “WEED CONTROL METHOD” (SYNGENTA CROP PROTECTION AG, priority 2021, published 2024).

How the values were obtained:
Type in all cases: in vivo
AMARE [1] = experiment: Biological efficacy, post-emergence glasshouse test (Table 2); conditions: 1000 g/ha, after 12 days
Description: (§1) Seeds of a variety of test species were shown in unsterilised compost in small pots. After cultivation for one day (pre-emergence) or seven days (post-emergence) in controlled conditions in the glasshouse (at 24/16° C., day/night; 14 hours light; 65% humidity) the plants were sprayed with 1 mg of the active ingredient, formulated in 466 μl of a acetone/water/Tween 20 (49.75:49.75:0.5) solution, which is equivalent to 1000 g/ha. Once the foliage was dry, the pots were kept in the glasshouse (at 24/16° C., day/night; 14 hours light; 65% humidity), and were watered twice daily. After 12 days the test was evaluated and scored (100=total damage to plant, 0=no damage to plant).

DIGSA [2] = experiment: as above; conditions: 1000 g/ha, after 12 days
Description: as §1

LOLPE [3] = experiment: as above; conditions: 1000 g/ha, after 12 days
Description: as §1

STEME [4] = experiment: as above; conditions: 1000 g/ha, after 12 days
Description: as §1

AMARE [5] = experiment: Biological efficacy, pre-emergence glasshouse test (Table 2); conditions: 1000 g/ha, after 12 days
Description: as §1

DIGSA [6] = experiment: as above; conditions: 1000 g/ha, after 12 days
Description: as §1

LOLPE [7] = experiment: as above; conditions: 1000 g/ha, after 12 days
Description: as §1

STEME [8] = experiment: as above; conditions: 1000 g/ha, after 12 days
Description: as §1

ABUTH = experiment: Pre-emergence biological efficacy (Table 3); conditions: 1000 g/ha, after 13 days
How it was run: (§2)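 Seeds sown in standard soil and sprayed one day later with compound formulated in acetone/AMA solvent-emulsifier, diluted in 0.2% Genapol X080 to the final dose. Plants grown in glasshouse at 24/18° C, 15 h light, 50% humidity. Damage scored after 13 days (0=none, 100=total).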

AMARE [9] = experiment: Pre-emergence biological efficacy (Table 3); conditions: 1000 g/ha, after 13 days
How it was run: as §2

IPOHE = experiment: Pre-emergence biological efficacy (Table 3); conditions: 1000 g/ha, after 13 days
How it was run: as §2

STEME [10] = experiment: Pre-emergence biological efficacy (Table 3); conditions: 1000 g/ha, after 13 days
How it was run: as §2

ZEAMX = experiment: Pre-emergence biological efficacy (Table 3); conditions: 1000 g/ha, after 13 days
How it was run: as §2

weeds and/or crops = experiment: Post-emergence biological efficacy (Table 4); conditions: 1000 g/ha, evaluated after 13 days
How it was run: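 Weeds and crops were grown 14 days in a glasshouse, then sprayed post-emergence with compound formulated in acetone/F50 and diluted in 0.2% Genapol X080 to the final dose. Damage was scored after 13 days on a 0–100 scale, where 100 is total damage.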

| SMILES | score (100=total damage to plant, 0=no damage to plant) (AMARE [1]) | score (100=total damage to plant, 0=no damage to plant) (DIGSA [2]) | score (100=total damage to plant, 0=no damage to plant) (LOLPE [3]) | score (100=total damage to plant, 0=no damage to plant) (STEME [4]) | score (100=total damage to plant, 0=no damage to plant) (AMARE [5]) | score (100=total damage to plant, 0=no damage to plant) (DIGSA [6]) | score (100=total damage to plant, 0=no damage to plant) (LOLPE [7]) | score (100=total damage to plant, 0=no damage to plant) (STEME [8]) | evaluation (100=total damage to plant; 0=no damage to plant) (ABUTH) | evaluation (100=total damage to plant; 0=no damage to plant) (AMARE [9]) | evaluation (100=total damage to plant; 0=no damage to plant) (IPOHE) | evaluation (100=total damage to plant; 0=no damage to plant) (STEME [10]) | evaluation (100=total damage to plant; 0=no damage to plant) (ZEAMX) | damage to plant ABUTH (100=total damage; 0=no damage) (weeds and/or crops; ABUTH) | damage to plant AMARE (100=total damage; 0=no damage) (weeds and/or crops; AMARE) | damage to plant IPOHE (100=total damage; 0=no damage) (weeds and/or crops; IPOHE) | damage to plant STEME (100=total damage; 0=no damage) (weeds and/or crops; STEME) | damage to plant ZEAMX (100=total damage; 0=no damage) (weeds and/or crops; ZEAMX) |
| --- | --- | --- | --- | --- | --- | --- | --- | --- | --- | --- | --- | --- | --- | --- | --- | --- | --- | --- |
| O=C(O)C(F)(F)c1ccc(OC(F)(F)F)cc1 [Compound 1-3] | 70 | 0 | 0 | 30 | 50 | 0 | 30 | 30 |  |  |  |  |  |  |  |  |  |  |
| COc1cc(C(F)(F)C(=O)O)ccc1C [Compound 1-7] | 40 | 0 | 0 | 70 | 0 | 0 | 0 | 30 |  |  |  |  |  |  |  |  |  |  |
| Nc1cccc(C(F)(F)C(=O)O)c1 [Compound 1-8, 2-(3-Aminophenyl)-2,2-difluoro-acetic acid] | 10 | 0 | 0 | 10 | 0 | 0 | 0 | 0 |  |  |  |  |  |  |  |  |  |  |
| O=C(O)C(F)(F)c1ccc(OC(F)(F)F)c(Br)c1 [Compound 1-20] | 70 | 30 | 0 | 0 | 30 | 0 | 0 | 0 |  |  |  |  |  |  |  |  |  |  |
| O=C(O)C(F)(F)c1ccc(OC(F)F)cc1F [Compound 1-32] | 30 | 0 | 0 | 40 | 0 | 0 | 0 | 0 |  |  |  |  |  |  |  |  |  |  |
| N#Cc1cccc(C(F)(F)C(=O)O)c1 [Compound 1-186] | 60 | 0 | 0 | 30 | 10 | 0 | 0 | 10 |  |  |  |  |  |  |  |  |  |  |
| CCc1ccccc1C(F)(F)C(=O)O [Compound 1-263] | 50 | 0 | 0 | 50 | 40 | 0 | 0 | 0 |  |  |  |  |  |  |  |  |  |  |
| CCc1c(Cl)cccc1C(F)(F)C(=O)O [Compound 1-275, 2-(3-Chloro-2-ethyl-phenyl)-2,2-difluoro-acetic acid] | 90 | 30 | 0 | 80 | 100 | 80 | 60 | 100 |  |  |  |  |  |  |  |  |  |  |
| C#Cc1c(Cl)cccc1C(F)(F)C(=O)O [Compound 1-291, 2-(3-Chloro-2-ethynyl-phenyl)-2,2-difluoro-acetic acid] | 100 | 70 | 0 | 80 | 90 | 90 | 80 | 100 |  |  |  |  |  |  |  |  |  |  |
| COc1ccc(F)cc1C(F)(F)C(=O)O [Compound 1-304] | 70 | 20 | 20 | 20 | 0 | 0 | 0 | 0 |  |  |  |  |  |  |  |  |  |  |
| COc1ccc(Cl)cc1C(F)(F)C(=O)O [Compound 1-305] | 50 | 0 | 0 | 0 | 0 | 0 | 0 | 0 |  |  |  |  |  |  |  |  |  |  |
| CCOc1ccccc1C(F)(F)C(=O)O [Compound 1-328] | 80 | 0 | 0 | 60 | 50 | 0 | 0 | 40 |  |  |  |  |  |  |  |  |  |  |
| CC(C)Oc1ccccc1C(F)(F)C(=O)O [Compound 1-341] | 80 | 20 | 10 | 60 | 30 | 0 | 10 | 30 |  |  |  |  |  |  |  |  |  |  |
| COc1cc(F)c(C(F)(F)C(=O)O)cc1Cl.N [Compound 7-31, Ammonium;2-(5-chloro-2-fluoro-4-methoxy-phenyl)-2,2-difluoro-acetate] | 100 | 0 | 0 | 0 | 0 | 0 | 0 | 0 | 0 | 0 | 0 | 0 | 0 | 0 | 0 | 0 | 0 | 20 |
